From ChEMBL document CHEMBL3045959, “QSAR studies on substituted 3- or 4-phenyl-1,8-naphthyridine derivatives as antimicrobial agents” (2012)

Key:
Format in all cases: functional
[1] = tested on: Mycobacterium tuberculosis; assay: Antimycobacterial activity against Mycobacterium tuberculosis H37Rv at 6.25 ug/ml
Staphylococcus aureus = assay: Antibacterial activity against Staphylococcus aureus by […]
Escherichia coli = assay: Antibacterial activity against Escherichia coli by […]

Compound | -log(inh/100-inh) [1] | inhibition zone (IZ) (Staphylococcus aureus) | inhibition zone (IZ) (Escherichia coli)
Cc1ccc2c(Cl)c(C)c(N3CCCCC3)nc2n1 | -0.6886 | – | –
CCOC(=O)N1CCN(c2cc(-c3ccccc3)c3ccc(N4CCNCC4)nc3n2)CC1 | 1.0607 | 23 mm | 25 mm
CCOC(=O)N1CCN(c2nc3nc(N4CCOCC4)ccc3cc2-c2ccccc2)CC1 | 0.2499 | 13 mm | 17 mm
CCOC(=O)N1CCN(c2nc3nc(Cl)ccc3cc2-c2ccccc2)CC1 | 0.3076 | – | 24 mm
COC(=O)N1CCN(c2nc3nc(OC)ccc3cc2-c2ccccc2)CC1 | -0.1224 | 16 mm | 12 mm
c1ccc(-c2cc3ccc(N4CCNCC4)nc3nc2N2CCNCC2)cc1 | 0.432 | 14 mm | 12 mm
c1ccc(-c2cc3ccc(N4CCCCC4)nc3nc2N2CCNCC2)cc1 | 0.8653 | – | 18 mm
COc1ccc2cc(-c3ccccc3)c(N3CCNCC3)nc2n1 | 0.3076 | 12 mm | 16 mm
Cc1ccc2c(Cl)c(C)c(Cl)nc2n1 | -1.9956 | – | –
Cc1ccc2c(Cl)c(Cc3ccccc3)c(C)nc2n1 | 0.0872 | – | –
Cc1ccc2c(Cl)c(Cc3ccccc3)c(N3CCOCC3)nc2n1 | -0.6021 | – | –
Cc1ccc2c(Cl)c(Cc3ccccc3)c(N3CCCCC3)nc2n1 | -0.1581 | – | –
Cc1ccc2c(N3CCOCC3)c(C)c(N3CCCCC3)nc2n1 | -0.908 | – | –
Cc1ccc2c(N3CCOCC3)c(Cc3ccccc3)c(N3CCCCC3)nc2n1 | -0.6021 | – | –
Cc1ccc2c(N3CCCCC3)c(Cc3ccccc3)c(N3CCCCC3)nc2n1 | 1.3802 | – | –
Oc1ccc2c(Cl)cc(N3CCOCC3)nc2n1 | -1.6902 | – | –
Clc1ccc2c(Cl)cc(N3CCOCC3)nc2n1 | -0.2126 | – | –
Clc1cc(N2CCOCC2)nc2nc(N3CCCCC3)ccc12 | -0.432 | – | –
c1cc2c(N3CCOCC3)cc(N3CCOCC3)nc2nc1N1CCOCC1 | -0.908 | – | –
c1cc2c(N3CCCCC3)cc(N3CCOCC3)nc2nc1N1CCCCC1 | -0.1224 | – | –

Compound | -log(inh/100-inh) [1] | inhibition zone (IZ) (Staphylococcus aureus) | inhibition zone (IZ) (Escherichia coli)
Oc1ccc2c(N3CCOCC3)cc(N3CCOCC3)nc2n1 | -1.0048 | – | –
Clc1ccc2c(N3CCOCC3)cc(N3CCOCC3)nc2n1 | -1.9956 | – | –
Clc1ccc2c(N3CCCCC3)cc(N3CCOCC3)nc2n1 | -1.0607 | – | –
c1cc2c(N3CCCCC3)cc(N3CCOCC3)nc2nc1N1CCOCC1 | -0.908 | – | –
CC(=O)Nc1ccc2c(Cl)cc(N3CCCCC3)nc2n1 | -1.0607 | – | –
Nc1ccc2c(Cl)cc(N3CCCCC3)nc2n1 | -0.2126 | – | –
Nc1ccc2c(N3CCCCC3)cc(N3CCNCC3)nc2n1 | 0.4102 | – | –
Nc1ccc2c(N3CCCCC3)cc(N3CCOCC3)nc2n1 | -1.195 | – | –
O=C(CCc1ccc2c(-c3ccccc3)cc(O)nc2n1)OCCN1CCNCC1 | -0.7202 | – | –
Oc1cc(-c2ccccc2)c2ccc(N3CCNCC3)nc2n1 | -0.908 | – | –
c1ccc(-c2cc(N3CCCCC3)nc3nc(N4CCCCC4)ccc23)cc1 | 1.9956 | 14 mm | 28 mm
c1ccc(-c2cc(N3CCOCC3)nc3nc(N4CCOCC4)ccc23)cc1 | – | 12 mm | –
c1ccc(-c2cc(CCN3CCNCC3)nc3nc(CCN4CCNCC4)ccc23)cc1 | 0.6297 | 12 mm | 12 mm
c1cc(N2CCNCC2)ccc1-c1ccc2ccc(-c3ccc(N4CCNCC4)cc3)nc2n1 | -0.0522 | 12 mm | 18 mm
Nc1ccc2c(-c3ccccc3)cc(N3CCCCC3)nc2n1 | 1.0048 | 14 mm | 20 mm
Nc1ccc2c(-c3ccccc3)cc(N3CCOCC3)nc2n1 | -0.0522 | 20 mm | 33 mm
Nc1ccc2c(-c3ccccc3)cc(CCN3CCNCC3)nc2n1 | 0.3475 | 16 mm | 36 mm
Nc1ccc(-c2ccc3ccc(-c4ccc(N5CCNCC5)cc4)nc3n2)cc1 | 1.195 | 16 mm | 32 mm
Oc1ccc2c(-c3ccccc3)cc(N3CCCCC3)nc2n1 | – | 24 mm | –
Oc1ccc2c(-c3ccccc3)cc(N3CCOCC3)nc2n1 | – | 20 mm | 26 mm

Compound | -log(inh/100-inh) [1] | inhibition zone (IZ) (Staphylococcus aureus) | inhibition zone (IZ) (Escherichia coli)
Oc1ccc2c(-c3ccccc3)cc(CCN3CCNCC3)nc2n1 | -0.3889 | 12 mm | –
Oc1ccc(-c2ccc3c(-c4ccccc4)cc(-c4ccc(N5CCNCC5)cc4)nc3n2)cc1 | -0.3274 | 14 mm | 14 mm
Clc1ccc2c(-c3ccccc3)cc(N3CCCCC3)nc2n1 | 0.368 | 26 mm | –
Clc1ccc2c(-c3ccccc3)cc(N3CCOCC3)nc2n1 | -0.2499 | 18 mm | 12 mm
Clc1ccc2c(-c3ccccc3)cc(CCN3CCNCC3)nc2n1 | 0.3274 | – | 16 mm
Clc1ccc(-c2ccc3c(-c4ccccc4)cc(-c4ccc(N5CCNCC5)cc4)nc3n2)cc1 | 0.0871 | 22 mm | 14 mm
COc1ccc2c(-c3ccccc3)cc(N3CCCCC3)nc2n1 | 0.7533 | – | 20 mm
COc1ccc2c(-c3ccccc3)cc(N3CCOCC3)nc2n1 | -0.2689 | – | 24 mm
COc1ccc2c(-c3ccccc3)cc(CCN3CCNCC3)nc2n1 | 0.4102 | – | –
COc1ccc(-c2ccc3ccc(-c4ccc(N5CCNCC5)cc4)nc3n2)cc1 | 0.7884 | 28 mm | –
c1ccc(-c2cc3ccc(N4CCCCC4)nc3nc2N2CCCCC2)cc1 | 1.9956 | 16 mm | 20 mm
O=[N+]([O-])c1cc2cc(-c3ccccc3)c(N3CCCCC3)nc2nc1N1CCCCC1 | 0.5754 | 30 mm | –
Nc1cc2cc(-c3ccccc3)c(N3CCCCC3)nc2nc1N1CCCCC1 | 0.3889 | – | 26 mm
CCOC(=O)N1CCN(c2ccc3cc(-c4ccccc4)c(N4CCCCC4)nc3n2)CC1 | 1.0048 | 15 mm | 18 mm
c1ccc(-c2cc3ccc(N4CCNCC4)nc3nc2N2CCCCC2)cc1 | 0.908 | 18 mm | 14 mm
c1ccc(-c2cc3ccc(N4CCOCC4)nc3nc2N2CCCCC2)cc1 | 0.6886 | 22 mm | 26 mm
Nc1ccc2cc(-c3ccccc3)c(N3CCCCC3)nc2n1 | 0.1581 | 18 mm | –
CCOC(=O)N1CCN(c2ccc3cc(-c4ccccc4)c(N4CCN(C(=O)OCC)CC4)nc3n2)CC1 | -0.0348 | 17 mm | 18 mm
